For orientation: Ki means a dissociation constant, usually derived from enzyme kinetics or from competition with a known ligand. A low value points to higher affinity.

Bridge positions count the residues as written; N and C are the ends. Square brackets hold non-standard residues; d marks the D form. Peptide text beside a SMILES is read from it. dPhe(4-Cl) = N[C@H](Cc1ccc(Cl)cc1)C(=O)O; dPhe(4-F) = N[C@H](Cc1ccc(F)cc1)C(=O)O; d2Nal = N[C@H](Cc1ccc2ccccc2c1)C(=O)O; NMeL = CN[C@@H](CC(C)C)C(=O)O; ΔPro = O=C(O)[C@@H]1C=CCN1; Dap = NC[C@H](N)C(=O)O; βAla = NCCC(=O)O

Test [1] concerns the target T1, Gonadotropin-releasing hormone receptor (Rattus norvegicus, UniProt P30969).
T1 sequence (P30969 whole entry): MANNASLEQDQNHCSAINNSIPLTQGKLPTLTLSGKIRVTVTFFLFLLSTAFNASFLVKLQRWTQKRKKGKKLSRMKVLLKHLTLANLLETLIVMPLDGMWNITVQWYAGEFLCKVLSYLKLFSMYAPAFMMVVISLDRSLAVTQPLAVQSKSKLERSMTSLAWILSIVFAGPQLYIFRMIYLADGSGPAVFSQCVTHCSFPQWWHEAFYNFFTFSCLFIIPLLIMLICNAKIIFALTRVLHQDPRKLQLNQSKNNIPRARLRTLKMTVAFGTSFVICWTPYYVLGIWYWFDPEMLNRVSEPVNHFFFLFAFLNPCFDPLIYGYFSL
The experiment in a line: Affinity for rat gonadotrophin releasing hormone (GnRH) receptor using HEK293 cells transfected with rat Gonadotropin-releasing hormone receptor. The format is cell-based.

For another test, the species on record is Rattus norvegicus. The experiment in a line: Antiovulatory potency at 1000 ug/rat expressed as rats ovulating by total no. of rats (4/4). The format is functional.

For the compound `CC(=O)N[C@H](Cc1ccc2ccccc2c1)C(=O)N[C@@H]1CCC(=O)NCCCC[C@@H]2NC(=O)[C@H](CC(C)C)NC(=O)[C@@H](Cc3ccc4ccccc4c3)NC(=O)[C@H](CCCN=C(N)N)NC(=O)[C@H](CC(=O)NC[C@@H](C(N)=O)NC(=O)[C@@H]3CCCN3C2=O)NC(=O)[C@@H](Cc2cccnc2)NC1=O` [listing 1 of 2 here], affinity in test [1] (hek293) was put at a Ki of 15 nM. This counts as double-digit nanomolar.

With `CC(=O)N[C@H](Cc1ccc2ccccc2c1)C(=O)N[C@H](Cc1ccc(Cl)cc1)C(=O)N[C@@H]1CSSC[C@@H](C(=O)N2CCC[C@H]2C(=O)N[C@H](C)C(N)=O)NC(=O)[C@H](CC(C)C)NC(=O)[C@@H](Cc2ccc3ccccc3c2)NC(=O)[C@H](CCCN=C(N)N)NC(=O)[C@H](C)NC1=O`, the inhibitory constant (Ki) in test [1] came to 9.9 nM.

For the compound `CC(=O)N[C@H](Cc1ccc2ccccc2c1)C(=O)N[C@H](Cc1ccc(Cl)cc1)C(=O)N[C@@H]1CC(=O)NC[C@@H](C(=O)N2CCC[C@H]2C(=O)N[C@H](C)C(N)=O)NC(=O)[C@H](CC(C)C)NC(=O)[C@@H](Cc2ccc3ccccc3c2)NC(=O)[C@H](CCCN=C(N)N)NC(=O)[C@H](C)NC1=O` [listing 1 of 2 here], the Ovulating rats in the test listed under Rattus norvegicus amounted to 4.

In the case of `CC(=O)N[C@H](Cc1ccc2ccccc2c1)C(=O)N[C@@H]1CCC(=O)NCCCC[C@@H](C(=O)N2CCC[C@H]2C(=O)N[C@H](C)C(N)=O)NC(=O)[C@H](CC(C)C)NC(=O)[C@@H](Cc2ccc3ccccc3c2)NC(=O)[C@H](CCCN=C(N)N)NC(=O)[C@H](C)NC(=O)[C@@H](Cc2cccnc2)NC1=O`, the Ki in test [1] (hek293) is 110 nM.

In the case of `CC(=O)N[C@H](Cc1ccc2ccccc2c1)C(=O)N[C@H](Cc1ccc(Cl)cc1)C(=O)N[C@@H]1CC(=O)NCCC[C@@H](C(=O)N2CCC[C@H]2C(=O)N[C@H](C)C(N)=O)NC(=O)[C@H](CC(C)C)NC(=O)[C@@H](Cc2ccc3ccccc3c2)NC(=O)[C@H](CCCNC(=N)N)NC(=O)[C@H](C)NC1=O`, the Ki in test [1] was determined as 14 nM.

In test [1] (hek293), `CC(=O)N[C@@H]1CCC(=O)NCCCC[C@@H](C(=O)N2CCC[C@H]2C(=O)N[C@@H](C)C(N)=O)NC(=O)[C@H](CC(C)C)NC(=O)[C@H](Cc2ccc3ccccc3c2)NC(=O)[C@H](CCCNC(=N)N)NC(=O)[C@H](C)NC(=O)[C@H](Cc2cccnc2)NC(=O)[C@H](Cc2ccc(Cl)cc2)NC1=O` gave a Ki of 55 nM. The compound further registered an Ovulating rats in the test listed under Rattus norvegicus of 4.

On to `CC(=O)N[C@H]1CCC(=O)NCC(=O)NCC[C@@H]2NC(=O)[C@H](CC(=O)NC[C@@H](C(N)=O)NC(=O)[C@@H]3CCCN3C(=O)[C@H](CCCNC(=N)N)NC(=O)[C@H](CC(C)C)NC(=O)[C@@H](Cc3ccc4ccccc4c3)NC2=O)NC(=O)[C@@H](Cc2c[nH]c3ccccc23)NC(=O)[C@@H](Cc2ccc(Cl)cc2)NC1=O`, for which, in test [1], the Ki came to 0.24 nM. In other words, the sub-nanomolar range.

As to `CC(=O)N[C@H](Cc1ccc2ccccc2c1)C(=O)N[C@H](Cc1ccc(Cl)cc1)C(=O)N[C@@H]1CC(=O)NC[C@@H](C(=O)N2CCC[C@H]2C(=O)N[C@H](C)C(N)=O)NC(=O)[C@H](CC(C)C)NC(=O)[C@@H](Cc2ccc3ccccc3c2)NC(=O)[C@H](CCCN=C(N)N)NC(=O)[C@H](C)NC1=O` [listing 2 of 2 here], the Ki in test [1] is 21 nM. This Ki is about 88-fold higher than that of the compound before.

`CC(=O)N[C@H]1CC(=O)NCC(=O)NCC[C@H]2NC(=O)[C@H](CC(=O)NC[C@@H](C(N)=O)NC(=O)[C@@H]3CCCN3C(=O)[C@H](CCCN=C(N)N)NC(=O)[C@H](CC(C)C)NC(=O)[C@@H](Cc3ccc4ccccc4c3)NC2=O)NC(=O)[C@@H](Cc2c[nH]c3ccccc23)NC(=O)[C@@H](Cc2ccc(Cl)cc2)NC1=O` showed a Ki in test [1] (hek293) of 3.1 nM.

With `CC(=O)N[C@H]1CCC(=O)NCCCC[C@@H](C(=O)N2CCC[C@H]2C(=O)N[C@@H](C)C(N)=O)NC(=O)[C@H](CC(C)C)NC(=O)[C@H](Cc2ccc3ccccc3c2)NC(=O)[C@H](CCCNC(=N)N)NC(=O)[C@H](C)NC(=O)[C@H](Cc2cccnc2)NC(=O)[C@H](Cc2ccc(Cl)cc2)NC1=O`, in test [1] (hek293), the affinity corresponds to a Ki of 62 nM. Further, the Ovulating rats in the test filed under Rattus norvegicus turned out to be 4.

Compound `CC(=O)N[C@H](Cc1ccc2ccccc2c1)C(=O)N[C@H](Cc1ccc(Cl)cc1)C(=O)N[C@@H]1CCC(=O)NCCCC[C@@H](C(=O)N2CCC[C@H]2C(=O)N[C@H](C)C(N)=O)NC(=O)[C@H](CC(C)C)NC(=O)[C@@H](Cc2ccc3ccccc3c2)NC(=O)[C@H](CCCNC(=N)N)NC(=O)[C@H](CO)NC1=O` came in with a Ki in test [1] (hek293) of 23 nM.

In test [1] (hek293), `CC(=O)N[C@H](Cc1ccc2ccccc2c1)C(=O)N[C@H](Cc1ccc(Cl)cc1)C(=O)N[C@@H]1CC(=O)NCCCC[C@@H]2NC(=O)[C@H](CC(C)C)NC(=O)[C@@H](CCCNC(=N)N)NC(=O)[C@H](Cc3ccc(O)cc3)NC(=O)[C@H](CC(=O)NC[C@@H](C(N)=O)NC(=O)[C@@H]3CCCN3C2=O)NC1=O` came in with a Ki of 17 nM.

The compound `CC(=O)N[C@H](Cc1ccc2ccccc2c1)C(=O)N[C@@H]1CCC(=O)NCCCC[C@@H]2NC(=O)[C@H](CC(C)C)NC(=O)[C@@H](Cc3ccc4ccccc4c3)NC(=O)[C@H](CCCN=C(N)N)NC(=O)[C@H](CC(=O)NC[C@@H](C(N)=O)NC(=O)[C@@H]3CCCN3C2=O)NC(=O)[C@@H](Cc2cccnc2)NC1=O` [listing 2 of 2 here] yielded an Ovulating rats in the test listed under Rattus norvegicus of 4.

On to `CC(=O)N1CC=C[C@H]1C(=O)N[C@H](Cc1ccc(F)cc1)C(=O)N[C@H](Cc1c[nH]c2ccccc12)C(=O)N[C@H]1CC(=O)NC[C@@H](C(N)=O)NC(=O)[C@@H]2CCCN2C(=O)[C@H](CCCN=C(N)N)NC(=O)[C@H](CC(C)C)NC(=O)[C@@H](Cc2ccc3ccccc3c2)NC(=O)[C@H](Cc2ccc(O)cc2)NC1=O` (Ac-[ΔPro][dPhe(4-F)][dW]DY[d2Nal]LRP[Dap]-NH2; lactam 4-10), for which, in test [1], the Ki turned out to be 0.27 nM.

In the case of `CC(=O)N[C@H](Cc1ccc2ccccc2c1)C(=O)N[C@H](Cc1ccc(F)cc1)C(=O)N[C@H](Cc1c[nH]c2ccccc12)C(=O)N[C@H]1CC(=O)NC[C@@H](C(N)=O)NC(=O)[C@@H]2CCCN2C(=O)[C@@H]2CCCCNC(=O)CC[C@H](NC1=O)C(=O)N[C@H](CCCN=C(N)N)C(=O)N[C@@H](CC(C)C)C(=O)N2`, the Ki in test [1] (hek293) was found to be 0.32 nM.

In the case of `CC(=O)N[C@H](Cc1ccc2ccccc2c1)C(=O)N[C@H]1CC(=O)NCC(=O)NC[C@@H]2NC(=O)[C@H](Cc3ccc(O)cc3)NC(=O)[C@H](CC(=O)NC[C@@H](C(N)=O)NC(=O)[C@@H]3CCCN3C(=O)[C@H](CCCN=C(N)N)NC(=O)[C@H](CC(C)C)NC2=O)NC(=O)[C@@H](Cc2c[nH]c3ccccc23)NC1=O`, the affinity in test [1] (hek293) corresponds to a Ki of 490 nM. This compound registered an Ovulating rats in the test filed under Rattus norvegicus of 4.

In test [1] (hek293), `CC(=O)N[C@H](Cc1ccc2ccccc2c1)C(=O)N[C@H](Cc1ccc(F)cc1)C(=O)N[C@H](Cc1cccnc1)C(=O)N[C@H]1CC(=O)NC[C@@H](C(N)=O)NC(=O)[C@@H]2CCCN2C(=O)[C@@H]2CCNC(=O)CNC(=O)CC[C@H](NC1=O)C(=O)N[C@H](CCCN=C(N)N)C(=O)N[C@@H](CC(C)C)C(=O)N2` gave a Ki of 0.12 nM. This counts as sub-nanomolar.

The compound `CC(C)C[C@H]1C(=O)N[C@@H](CCCN=C(N)N)C(=O)N2CCC[C@H]2C(=O)NCCC(=O)N2CC=C[C@H]2C(=O)N[C@H](Cc2ccc(Cl)cc2)C(=O)N[C@H](Cc2c[nH]c3ccccc23)C(=O)N[C@@H](CO)C(=O)N[C@@H](Cc2ccc(O)cc2)C(=O)N[C@H](Cc2c[nH]c3ccccc23)C(=O)N1C` (cyclo([NMeL]RP[βAla][ΔPro][dPhe(4-Cl)][dW]SY[dW])) gave a Ki in test [1] of 14 nM.

With `CC(=O)N[C@H](Cc1ccc2ccccc2c1)C(=O)N[C@H](Cc1ccc(Cl)cc1)C(=O)N[C@@H]1CC(=O)NCCCC[C@@H]2NC(=O)[C@H](CC(C)C)NC(=O)[C@@H](Cc3ccc4ccccc4c3)NC(=O)[C@H](CCCNC(=N)N)NC(=O)[C@H](CC(=O)NC[C@@H](C(N)=O)NC(=O)[C@@H]3CCCN3C2=O)NC1=O`, the affinity in test [1] (hek293) corresponds to a Ki of 11 nM.

In the test listed under Rattus norvegicus, `CC(=O)N[C@H](Cc1ccc2ccccc2c1)C(=O)N[C@@H]1CC(=O)NC[C@@H](C(=O)N2CCC[C@H]2C(=O)N[C@H](C)C(N)=O)NC(=O)[C@H](CC(C)C)NC(=O)[C@@H](Cc2ccc3ccccc3c2)NC(=O)[C@H](CCCNC(=N)N)NC(=O)[C@H](C)NC(=O)[C@@H](Cc2cccnc2)NC1=O` [listing 1 of 2 here] displayed an Ovulating rats of 4.

On to `CC(C)C[C@@H]1NC(=O)[C@@H](Cc2ccc3ccccc3c2)NC(=O)[C@H](CCCNC(=N)N)NC(=O)[C@H](C)NC(=O)[C@@H](Cc2cccnc2)NC(=O)[C@@H](Cc2ccc(Cl)cc2)NC(=O)[C@@H](Cc2ccc3ccccc3c2)NC(=O)CCC(=O)NCCCC[C@@H](C(=O)N2CCC[C@H]2C(=O)N[C@H](C)C(N)=O)NC1=O`, for which the Ki in test [1] (hek293) was determined as 21 nM.

In the case of `CC(=O)N[C@H](Cc1ccc2ccccc2c1)C(=O)N[C@@H]1CC(=O)NC[C@@H](C(=O)N2CCC[C@H]2C(=O)N[C@H](C)C(N)=O)NC(=O)[C@H](CC(C)C)NC(=O)[C@@H](Cc2ccc3ccccc3c2)NC(=O)[C@H](CCCNC(=N)N)NC(=O)[C@H](C)NC(=O)[C@@H](Cc2cccnc2)NC1=O` [listing 2 of 2 here], in test [1] (hek293), affinity was put at a Ki of 67 nM.

On to `CC(=O)N[C@H]1CC(=O)NCC(=O)NCC[C@@H]2NC(=O)[C@H](CC(=O)NC[C@@H](C(N)=O)NC(=O)[C@@H]3CCCN3C(=O)[C@H](CCCN=C(N)N)NC(=O)[C@H](CC(C)C)NC(=O)[C@@H](Cc3ccc4ccccc4c3)NC2=O)NC(=O)[C@@H](Cc2c[nH]c3ccccc23)NC(=O)[C@@H](Cc2ccc(Cl)cc2)NC1=O`, for which the Ki in test [1] was 0.22 nM.

Compound `CC(=O)N[C@H](Cc1ccc2ccccc2c1)C(=O)N[C@H](Cc1ccc(Cl)cc1)C(=O)N[C@@H]1CC(=O)NCC[C@@H](C(=O)N2CCC[C@H]2C(=O)N[C@H](C)C(N)=O)NC(=O)[C@H](CC(C)C)NC(=O)[C@@H](Cc2ccc3ccccc3c2)NC(=O)[C@H](CCCNC(=N)N)NC(=O)[C@H](C)NC1=O` came in with a Ki in test [1] of 13 nM.

Consider `CC(=O)N[C@H](Cc1ccc2ccccc2c1)C(=O)N[C@H](Cc1ccc(Cl)cc1)C(=O)N[C@@H]1CC(=O)NCCCC[C@@H](C(=O)N2CCC[C@H]2C(=O)N[C@H](C)C(N)=O)NC(=O)[C@H](CC(C)C)NC(=O)[C@@H](Cc2ccc3ccccc3c2)NC(=O)[C@H](CCCN=C(N)N)NC(=O)[C@H](C)NC1=O`, for which, in test [1], the affinity, expressed as Ki, was 2.3 nM.
